Experimental findings from US8569336B2, “Compounds for the treatment of inflammatory disorders” (priority 2008, dated 2013) are described below.

Read-outs that look alike come from different tables or passages of the source.

The nature of data set [1]: Area under the curve determinations of plasma levels in rats (rrAUC), oral 10 mg/kg. The class given is in vivo. Conditions: rat, plasma 0.5-6 h post-dosing, read-out: RR AUC (rapid rat AUC, rrAUC).
The target in data set [2] is T1, purified catalytic domain of recombinant human TACE (rhTACEc) (Homo sapiens, UniProt P78536, N452Q/S266A).
T1 construct: 6xHis (C); made in house; host or cells: baculovirus/Hi5 insect cells
T1 sequence (P78536 215-477 S266A/N452Q): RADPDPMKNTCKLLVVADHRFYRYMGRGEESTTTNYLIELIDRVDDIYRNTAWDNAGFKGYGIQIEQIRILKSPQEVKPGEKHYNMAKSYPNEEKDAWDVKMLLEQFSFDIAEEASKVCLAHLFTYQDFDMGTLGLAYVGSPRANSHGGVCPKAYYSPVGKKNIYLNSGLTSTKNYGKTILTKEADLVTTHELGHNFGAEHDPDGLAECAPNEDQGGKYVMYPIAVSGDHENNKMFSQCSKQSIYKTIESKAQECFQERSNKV
The data set can be described thus: TACE kinetic assay: cleavage of internally quenched peptide substrate TNF-FRET 2 (Ki). The class given is biochemical. Conditions: TNF-FRET 2 substrate.

In data set [3] the test system is TNF-α production from human whole blood. The data set can be described thus: Inhibition of TNF-α production from human whole blood (hWBA), LPS stimulated, ELISA. The following applies: Homo sapiens, 3.5 h, human whole blood diluted 1:1, LPS stimulated, 3.5 h, TNF-α by ELISA; read-out: hWBA (IC50). Type of data set: cell-based.

A word on the AUC: it is concentration integrated over time. One may read the Ki as a measure of affinity in units of concentration, obtained from inhibition or displacement. The term IC50 denotes the concentration that inhibits the measured activity by half. Take `COc1ccc2c(c1)C(=O)N(C[C@@]1(c3cc4cc(CNCCN(C)C)ccc4o3)NC(=O)NC1=O)C2` [Compound 2177]: the exposure (AUC) in data set [1] is 0.069 µM·h. The Ki in data set [2] (read-out: Ki) turned out to be 0.711 nM. The IC50 in data set [3] came out at 278 nM.
Take `COc1ccc2c(c1)C(=O)N(C[C@@]1(c3cc4ccc(-c5nnco5)cc4o3)NC(=O)NC1=O)C2` [Compound 2189]: the area under the curve (AUC) in data set [1] turned out to be 0.988 µM·h. For the same molecule, in data set [2] (Ki), the Ki came out at 0.536 nM. The 50% inhibitory concentration (IC50) in data set [3] turned out to be 672 nM.
With `COc1ccc2c(c1)C(=O)N(C[C@@]1(c3cc4ccc(-c5nnc(C)o5)cc4o3)NC(=O)NC1=O)C2` [Compound 2190], in data set [1], the exposure (AUC) is 0.414 µM·h. The Ki in data set [2] (read-out: Ki) came to 0.515 nM. The IC50 in data set [3] is 958 nM.
For `COc1ccc2c(c1)C(=O)N(C[C@@]1(c3cc4cc(-c5cccnc5)ccc4o3)NC(=O)NC1=O)C2` [Compound 2195], the AUC in data set [1] was determined as 1.16 µM·h. Also, the Ki in data set [2] (Ki) worked out at 0.966 nM. For the same molecule, in data set [3], the IC50 was 2120 nM.
As to `COc1ccc2c(c1)C(=O)N(C[C@@]1(c3cc4cc(-n5cncn5)ccc4o3)NC(=O)NC1=O)C2` [Compound 2196], the AUC in data set [1] is 7.06 µM·h. The Ki in data set [2] (read-out: Ki) is 0.645 nM. For the same molecule, in data set [3], the IC50 was 1540 nM.
The matching figures for `COc1ccc2c(c1)C(=O)N(C[C@@]1(c3cc4cc(C5(C)NC(=O)NC5=O)c(F)cc4o3)NC(=O)NC1=O)C2` (stereo partly drawn) [Compound 2200]: 0.177 µM·h, 1.85 nM and 217 nM.
The matching figures for `COc1ccc2c(c1F)C(=O)N(C[C@@]1(c3cc4ncccc4o3)NC(=O)NC1=O)C2` [Compound 2203]: 3.92 µM·h, 0.468 nM and 200 nM.
The like results for `COc1ccc2c(c1F)C(=O)N(C[C@@]1(c3cc4c(C)nccc4o3)NC(=O)NC1=O)C2` [Compound 2204] were, in that order, 0.983 µM·h, 0.34 nM and 115 nM.
`COc1ccc2c(c1)C(=O)N(C[C@@]1(c3cc4cc(C5(C)NC(=O)NC5=O)c(C)cc4o3)NC(=O)NC1=O)C2` (stereo partly drawn) [Compound 2207]: in data set [1], the AUC is 0.063 µM·h. Also, the Ki in data set [2] (read-out: Ki) was found to be 0.813 nM. In data set [3], the IC50 is 310 nM.
In the case of `CCC1(c2cc(F)c3oc([C@]4(CN5Cc6ccc(OC)cc6C5=O)NC(=O)NC4=O)cc3c2)NC(=O)NC1=O` (stereo partly drawn) [Compound 2210], in data set [1], the AUC came to 0.018 µM·h. In addition, in data set [2] (read-out: Ki), the Ki is 0.319 nM. For the same molecule, in data set [3], the IC50 turned out to be 232 nM.
Turning to `COc1ccc2c(c1)C(=O)N(C[C@@]1(c3cc4ccccc4o3)NC(=O)NC1=O)C2` [Compound 2214], the AUC in data set [1] is 0.195 µM·h. Also, in data set [2] (read-out: Ki), the Ki worked out at 0.274 nM. In addition, in data set [3], the half-inhibitory concentration (IC50) came out at 2310 nM.
On to `COc1ccc2c(c1)C(=O)N(C[C@@]1(c3cc4cc(-c5cc[nH]n5)ccc4o3)NC(=O)NC1=O)C2` [Compound 2219], for which, in data set [1], the AUC is 1.02 µM·h. For the same molecule, the inhibitory constant (Ki) in data set [2] (read-out: Ki) was 0.682 nM. For the same molecule, the IC50 in data set [3] is 1390 nM.
The matching figures for `COc1ccc2c(c1)C(=O)N(C[C@@]1(c3cc4cc(-c5csc(N)n5)ccc4o3)NC(=O)NC1=O)C2` [Compound 2220]: 0.165 µM·h, 0.243 nM and 722 nM.
The like results for `COc1ccc2c(c1)C(=O)N(C[C@@]1(c3cc4cc(N)ccc4o3)NC(=O)NC1=O)C2` [Compound 2226] were, in that order, 0.467 µM·h, 0.807 nM and 573 nM.
In the case of `CNC(=O)Nc1ccc2oc([C@]3(CN4Cc5ccc(OC)cc5C4=O)NC(=O)NC3=O)cc2c1` [Compound 2227], in data set [1], the AUC was 0.057 µM·h. Moreover, the Ki in data set [2] (read-out: Ki) was determined as 0.478 nM. Moreover, the concentration for half-maximal inhibition (IC50) in data set [3] was 541 nM.
The matching figures for `COc1ccc2c(c1)C(=O)N(C[C@@]1(c3cc4cc(NC(=O)N(C)C)ccc4o3)NC(=O)NC1=O)C2` [Compound 2228]: 0.129 µM·h, 0.839 nM and 2370 nM.
On to `CCNC(=O)Nc1ccc2oc([C@]3(CN4Cc5ccc(OC)cc5C4=O)NC(=O)NC3=O)cc2c1` [Compound 2229], for which the AUC in data set [1] worked out at 0.158 µM·h. Besides, the inhibition constant (Ki) in data set [2] (Ki) was found to be 0.388 nM. Besides, the concentration for half-maximal inhibition (IC50) in data set [3] stood at 457 nM.
The like results for `COc1ccc2c(c1)C(=O)N(C[C@@]1(c3cc4cnc(-c5ccncc5)cc4o3)NC(=O)NC1=O)C2` [Compound 2231] were, in that order, 2.75 µM·h, 0.54 nM and 1420 nM.
For `COc1ccc2c(c1)C(=O)N(C[C@@]1(c3cc4cnc(-c5cccnc5)cc4o3)NC(=O)NC1=O)C2` [Compound 2232], in data set [1], the area under the curve (AUC) amounted to 2.22 µM·h. For the same molecule, the Ki in data set [2] (read-out: Ki) came out at 0.538 nM. Besides, the half-inhibitory concentration (IC50) in data set [3] came out at 1100 nM.
Turning to `COc1ccc2c(c1)C(=O)N(C[C@@]1(c3cc4cnc(-c5cncnc5)cc4o3)NC(=O)NC1=O)C2` [Compound 2233], the exposure (AUC) in data set [1] turned out to be 3.81 µM·h. Further, the Ki in data set [2] (read-out: Ki) is 0.763 nM. Moreover, the IC50 in data set [3] came to 772 nM.
The matching figures for `COc1ccc2c(c1)C(=O)N(C[C@@]1(c3cc4cnc(-c5ccccc5F)cc4o3)NC(=O)NC1=O)C2` [Compound 2234]: 127 µM·h, 0.527 nM and 14300 nM.
The like results for `COc1ccc2c(c1)C(=O)N(C[C@@]1(c3cc4c(-c5cccnc5)nccc4o3)NC(=O)NC1=O)C2` [Compound 2235] were, in that order, 0.018 µM·h, 0.384 nM and 553 nM.
`COc1ccc2c(c1)C(=O)N(C[C@@]1(c3cc4c(-c5ccncc5)nccc4o3)NC(=O)NC1=O)C2` [Compound 2236]: the AUC in data set [1] amounted to 0.02 µM·h. Besides, in data set [2] (read-out: Ki), the Ki worked out at 0.54 nM. Also, the concentration for half-maximal inhibition (IC50) in data set [3] was determined as 949 nM.
The like results for `COc1ccc2c(c1)C(=O)N(C[C@@]1(c3cc4cc(-c5ccncc5)ncc4o3)NC(=O)NC1=O)C2` [Compound 2238] were, in that order, 4.86 µM·h, 0.889 nM and 628 nM.
The like results for `COc1ccc2c(c1)C(=O)N(C[C@@]1(c3cc4cc(-c5cccnc5)ncc4o3)NC(=O)NC1=O)C2` [Compound 2239] were, in that order, 9.84 µM·h, 0.669 nM and 718 nM.
For `COc1ccc2c(c1)C(=O)N(C[C@@]1(c3cc4cc(-c5ccccc5F)ncc4o3)NC(=O)NC1=O)C2` [Compound 2240], the exposure (AUC) in data set [1] was found to be 12.8 µM·h. Further, in data set [2] (read-out: Ki), the Ki amounted to 0.714 nM. Further, the half-maximal inhibitory concentration (IC50) in data set [3] was 3640 nM.
For the molecule `COc1ccc2c(c1)C(=O)N(C[C@@]1(c3cc4cc(-c5ccccc5O)ncc4o3)NC(=O)NC1=O)C2` [Compound 2241], in data set [1], the exposure (AUC) was 1.39 µM·h. In addition, in data set [2] (read-out: Ki), the inhibitory constant (Ki) came to 1.19 nM. For the same molecule, the IC50 in data set [3] was at least 10000 nM.
The matching figures for `COc1ccc2c(c1)C(=O)N(C[C@@]1(c3cc4cc(-c5ccc(O)cc5)ncc4o3)NC(=O)NC1=O)C2` [Compound 2243]: 0.027 µM·h, 0.427 nM and 753 nM.
Take `COc1ccc2c(c1)C(=O)N(C[C@@]1(c3cc4cc(-c5ccnc(N)n5)ccc4o3)NC(=O)NC1=O)C2` [Compound 2245]: the exposure (AUC) in data set [1] stood at 6.03 µM·h. In addition, in data set [2] (read-out: Ki), the inhibition constant (Ki) was found to be 0.456 nM. Further, the IC50 in data set [3] was determined as 1060 nM.
For the molecule `COc1ccc2c(c1)C(=O)N(C[C@@]1(c3cc4cc(-c5cc(N)n(C)n5)ccc4o3)NC(=O)NC1=O)C2` [Compound 2247], in data set [1], the area under the curve (AUC) worked out at 0.375 µM·h. Besides, in data set [2] (Ki), the Ki is 0.333 nM. Further, the 50% inhibitory concentration (IC50) in data set [3] came out at 782 nM.
As for `COc1ccc2c(c1)C(=O)N(C[C@@]1(c3cc4ccc(NC(C)=O)nc4o3)NC(=O)NC1=O)C2` [Compound 2249], the AUC in data set [1] was found to be 0.974 µM·h. Also, the Ki in data set [2] (read-out: Ki) was determined as 0.65 nM. In data set [3], the IC50 was 178 nM.
